Source: BindingDB's records for doi:10.7270/Q2H993NJ (University of Pittsburgh, 2010)
Values joined by “and” are separate entries in the source; they are usually repeats but may differ in a detail not shown here. Equal values may be shown once.

Molecular target: Furin (Homo sapiens, UniProt P09958)
Assay: human furin inhibition, concentration series – biochemical, fluorescence intensity, IC50, dose response (AID 463182)

Sequence of Furin (P09958 whole entry): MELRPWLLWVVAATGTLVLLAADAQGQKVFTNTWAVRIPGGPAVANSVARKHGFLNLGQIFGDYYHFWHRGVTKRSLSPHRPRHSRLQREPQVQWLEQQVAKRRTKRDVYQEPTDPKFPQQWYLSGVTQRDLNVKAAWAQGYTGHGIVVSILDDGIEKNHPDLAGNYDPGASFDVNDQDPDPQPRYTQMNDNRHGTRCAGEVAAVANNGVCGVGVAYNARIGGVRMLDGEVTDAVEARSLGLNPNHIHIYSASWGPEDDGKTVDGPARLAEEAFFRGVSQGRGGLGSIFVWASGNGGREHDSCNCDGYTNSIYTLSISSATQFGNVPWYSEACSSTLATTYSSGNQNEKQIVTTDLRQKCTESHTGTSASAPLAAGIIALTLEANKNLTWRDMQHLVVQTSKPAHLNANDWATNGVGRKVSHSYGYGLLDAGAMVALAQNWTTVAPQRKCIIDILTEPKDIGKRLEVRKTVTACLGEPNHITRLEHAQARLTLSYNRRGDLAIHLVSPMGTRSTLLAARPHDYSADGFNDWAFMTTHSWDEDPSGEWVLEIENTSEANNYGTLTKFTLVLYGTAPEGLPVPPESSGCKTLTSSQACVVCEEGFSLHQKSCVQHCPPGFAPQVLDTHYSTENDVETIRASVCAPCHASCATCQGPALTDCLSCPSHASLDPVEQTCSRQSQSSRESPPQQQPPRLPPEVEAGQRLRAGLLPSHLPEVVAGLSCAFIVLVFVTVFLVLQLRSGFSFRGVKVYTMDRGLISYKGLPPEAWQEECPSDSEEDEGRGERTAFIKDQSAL

CC1(C)CC(=O)C(=CNc2cccnc2)C(=O)C1
IC50: > 50 µM

CCCOP(=O)(c1ccc(N(C)C)cc1)C(Nc1ccccc1)c1ccc(N(C)C)cc1 (centres undefined)
IC50: > 50 µM

Cc1cccc(NC=C2C(=O)CC(C)(C)CC2=O)n1
IC50: > 50 µM

CCN1CCS/C1=C\C=C\C1=[N+](CC)CCS1 [3-ethyl-2-[(E,3E)-3-(3-ethylthiazolidin-2-ylidene)prop-1-enyl]-2-thiazolin-3-ium;iodide]
IC50: 33.8 µM and 31.5 µM

CC1(C)CC(=O)C(=CNn2cnc3ccccc3c2=O)C(=O)C1 [5,5-Dimethyl-2-[(4-oxo-4H-quinazolin-3-ylamino)-methylene]-cyclohexane-1,3-dione]
IC50: > 50 µM

Cc1cccc(-n2c(O)c(C=CC=Nc3ccccc3)c(=O)[nH]c2=O)c1 [(5Z)-1-(3-methylphenyl)-5-[(E)-3-phenylazanylprop-2-enylidene]-1,3-diazinane-2,4,6-trione]
IC50: > 50 µM

Cc1ccccc1-n1c(O)c(C=Nc2ccc(N(C)C)cc2)c(=O)[nH]c1=O [SMR000102641]
IC50: > 50 µM

Cc1cccc(C=C2SC(NN=C3CC4CCC3(C)C4(C)C)=NC2=O)c1 (centres undefined) [SMR000159419]
IC50: > 50 µM

CSc1nc(N)c(N=Nc2ccc([As](=O)(O)O)cc2)c(O)n1 [[4-[(2Z)-2-(4-azanyl-2-methylsulfanyl-6-oxidanylidene-pyrimidin-5-ylidene)hydrazinyl]phenyl]arsonic acid]
IC50: > 50 µM
